Assay results as given in patent US20160362416A1, “ANTIVIRAL COMPOUNDS” (Gilead Sciences, Inc., priority 2012, published 2016).

Assays:
[1] = tested on: stable HCV 1b RLuc replicon cells (genotype 1b Con1 replicon); experiment: HCV genotype 1b RLuc replicon reporter assay; assay type: cell-based; details: Hepatitis C virus; stable genotype 1b Con1 RLuc replicon cells, 72 hours
How it was run: (§1)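 Stable 1b Con1 RLuc replicon cells, or Huh-Lunet cells transiently transfected with chimeric replicons (Con1 backbone carrying 3a S52 or 4a ED43 NS5A; JFH-1 backbone carrying 2b MD2b-1 NS5A, M31), treated with 3-fold dilutions for 72 h. Renilla luciferase read after lysis; EC50 by non-linear regression.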

[2] = tested on: stable HCV 1a RLuc replicon cells (genotype 1a H77 replicon); experiment: HCV genotype 1a RLuc replicon reporter assay; assay type: cell-based; details: Hepatitis C virus; stable genotype 1a H77 RLuc replicon cells, 72 hours
[3] = tested on: stable HCV 2a JFH-1 Rluc replicon cells (L31 present in NS5A); experiment: HCV genotype 2a JFH-1 RLuc replicon reporter assay; assay type: cell-based; details: Hepatitis C virus, 72 h, read-out: 2a JFH (nM)
[4] = tested on: NS5A chimeric genotype 2a JFH-1 replicon with genotype 2a J6 strain NS5A gene (M31); experiment: HCV genotype 2a J6 NS5A chimeric replicon assay, transient (t); assay type: cell-based; details: Hepatitis C virus, 72 h, read-out: 2a J6 (t) (nM)
[5] = tested on: NS5A chimeric genotype 2a JFH-1 replicon with genotype 2b MD2b-1 strain NS5A gene (M31); experiment: HCV genotype 2b NS5A chimeric replicon assay, stable (s); assay type: cell-based; details: Hepatitis C virus, 72 h, read-out: 2b (s) (nM)
[6] = tested on: NS5A chimeric genotype 1b Con1 replicon with genotype 3a S52 strain NS5A gene; experiment: HCV genotype 3a NS5A chimeric replicon assay; assay type: cell-based; details: Hepatitis C virus, 72 h, read-out: 3a (nM)
How it was run: as §1

[7] = IV and PO single dose pharmacokinetic studies in SD rats; assay type: in vivo; details: Sprague-Dawley, rat, plasma, male SD rats, IV infusion 1 mg/kg, oral gavage 2 mg/kg, read-out: Rat % F
Description: IV and PO Single Dose Pharmacokinetic Studies in SD Rats: The pharmacokinetics of selected compounds was characterized in male Sprague-Dawley (SD) rats (250-300 g). In this study, two groups of naïve purebred SD rats (N=3 per group, fasted over night) received the selected compound either as an intravenous (IV) infusion (1 mg/kg over 30 minutes) via the jugular vein or by oral gavage (2 mg/kg). The intravenous (IV) dosing vehicle was 5% ethanol, 35% polyethylene glycol 400 (PEG 400) and 60% water pH 2.0. The oral dosing vehicle was 5% ethanol, 55% PEG 400 and 40% citrate buffer pH 2.2.
Serial blood samples (approximately 0.3 mL each) were collected from jugular vein or other suitable vein at specified time points. For the IV infusion group, the blood samples were collected predose and at 0.25, 0.48, 0.58, 0.75, 1.5, 3, 6, 8, 12 and 24 hours after the start of infusion. For the oral group, the blood samples were collected predose and at 0.25, 0.50, 1, 2, 4, 6, 8, 12 and 24 hours after dosing. The blood samples were collected into Vacutainer™ tubes containing EDTA-K3 as the anti-coagulant and were centrifuged at approximately 4° C. to obtain plasma. The plasma samples were stored at −20° C. until analysis by LC/MS/MS.
A bioanalytical method utilizing high performance liquid chromatography coupled to tandem mass spectrometry (LC/MS/MS) was developed for analysis of the selected compound in rat plasma. Detection was performed using selected reaction monitoring (SRM); Ions representing the precursor (M+H)^+ species was selected in quadrupole 1 (Q1) and collided with argon gas in the collision cell (Q2) to generate specific product ion, which was subsequently monitored by quadrupole 3 (Q3). Standard curve and quality control samples were prepared in male rat plasma and processed in the same way as the test samples to generate quantitative data.
Pharmacokinetic parameters were generated using non-compartmental pharmacokinetic analysis (Phoenix WinNonlin, version 6.3). Values below the lower limit of quantification (LLOQ) were assigned a value of zero if predose and treated as missing thereafter. Area under the curve (AUC) was calculated using the linear trapezoidal rule. The oral bioavailability (% F) was determined by comparison of the area under the curve (AUC) of the compound and/or a metabolite generated in plasma following oral administration to that generated following intravenous administration.

[8] = tested on: Q30E in genotype 1a NS5A replicon; experiment: Resistance mutant replicon assay, genotype 1a NS5A Q30E; assay type: cell-based, HCV; details: Hepatitis C virus, read-out: 1a Q30E (nM)
Description: (§2) Evaluation of cell-based anti-HCV activity: Antiviral potency (EC50) was determined using a Renilla luciferase (RLuc)-based HCV replicon reporter assay. To perform the assay for genotype 1 and 2a JFH-1, stable HCV 1a RLuc replicon cells (harboring a dicistronic genotype 1a H77 replicon that encodes a RLuc reporter), stable HCV lb RLuc replicon cells (harboring a dicistronic genotype 1b Conl replicon that encodes a RLuc reporter), or stable HCV 2a JFH-1 Rluc replicon cells (harboring a dicistronic genotype 2a JFH-1 replicon that encodes a RLuc reporter; with L31 present in NS5A) were dispensed into 384-well plates for EC50 assays. To perform the assay for genotype 2a (with M31 present in NS5A) or 2b, NS5A chimeric genotype 2a JFH-1 replicons that encodes a RLuc-Neo reporter and either genotype 2a J6 strain NS5A gene or genotype 2b MD2b-1 strain NS5A gene (both with M31 present) respectively, were either transiently transfected (t) into Huh-Lunet cells or were established as stably replicating replicon cells (s) is provided. Either cells were dispensed into 384-well plates for EC50 assays. To perform the assay for genotype 3 and 4, NS5A chimeric genotype 1b Conl replicons that encodes a Pi-RLuc reporter and either genotype 3a S52 strain NS5A gene or genotype 4a ED43 strain NS5A gene respectively, were transiently transfected (t) into Huh-Lunet cells, which were subsequently dispensed into 384-well plates. Compounds were dissolved in DMSO at a concentration of 10 mM and diluted in DMSO either manually or using an automated pipeting instrument. Serially 3-fold diluted compounds were either manually mixed with cell culture media and added to the seeded cells or directly added to the cells using an automated instrument. DMSO was used as a negative (solvent; no inhibition) control, and the protease inhibitor ITMN-191 was included at a concentration >100×EC50 as a positive control. 72 hours later, cells were lysed and Renilla luciferase activity quantified as recommended by the manufacturer (Promega-Madison, Wis.). Non-linear regression was performed to calculate EC50 values.
(§3) To determine the antiviral potency (EC50) against resistance mutants, resistance mutations, including M28T, Q30R, Q30H, Q30E, L31M, Y93C, Y93H, and Y93N in genotype 1a NS5A, Y93H and L31V/Y93H in genotype 1b NS5A, and Y93H for in genotype 3a NS5A, were introduced individually into either 1a Pi-Rluc or 1b Pi-Rluc replicons by site directed mutagenesis. Replicon RNA of each resistant mutant was transiently transfected into Huh-7-derived cured-51 cells and antiviral potency was determined on these transfected cells as described above.

[9] = tested on: Y93H in genotype 1a NS5A replicon; experiment: Resistance mutant replicon assay, genotype 1a NS5A Y93H; assay type: cell-based, HCV; details: Hepatitis C virus, read-out: 1a Y93H (nM)
How it was run: (§4)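 Renilla luciferase signal after 72 h compound exposure gave EC50 via non-linear regression. Cells were Huh-7-derived cured-51 transiently transfected with replicon RNA carrying the NS5A mutation introduced by site-directed mutagenesis into 1a or 1b Pi-RLuc replicons.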

[10] = tested on: Y93H in genotype 3a NS5A replicon; experiment: Resistance mutant replicon assay, genotype 3a NS5A Y93H; assay type: cell-based, HCV; details: Hepatitis C virus, read-out: 3a Y93H (nM)
How it was run: as §4

[11] = tested on: NS5A chimeric genotype 2a JFH-1 replicon with genotype 2b MD2b-1 strain NS5A gene (M31); experiment: HCV genotype 2b NS5A chimeric replicon assay, transient (t); assay type: cell-based; details: Hepatitis C virus, 72 h, read-out: 2b (t) (nM)
Description: as §2

[12] = tested on: NS5A chimeric genotype 1b Con1 replicon with genotype 4a ED43 strain NS5A gene; experiment: HCV genotype 4a NS5A chimeric replicon assay; assay type: cell-based; details: Hepatitis C virus, 72 h, read-out: 4a (s) (nM)
[13] = tested on: L31V/Y93H in genotype 1b NS5A replicon; experiment: Resistance mutant replicon assay, genotype 1b NS5A L31V/Y93H; assay type: cell-based, HCV; details: Hepatitis C virus, read-out: 1b L31V/Y93H (nM)
Description: as §2, §3

[14] = tested on: Y93N in genotype 1a NS5A replicon; experiment: Resistance mutant replicon assay, genotype 1a NS5A Y93N; assay type: cell-based, HCV; details: Hepatitis C virus, read-out: 1a Y93N (nM)
How it was run: as §4

SMILES | EC50 [1] [nM] | EC50 [2] [nM] | EC50 [3] [nM] | EC50 [4] [nM] | EC50 [5] [nM] | EC50 [6] [nM] | bioavailability [7] [%] | EC50 [8] [nM] | EC50 [9] [nM] | EC50 [10] [nM] | EC50 [11] [nM] | EC50 [12] [nM] | EC50 [13] [nM] | EC50 [14] [nM]
COC(=O)N[C@H](C(=O)N1[C@@H](C)CC[C@H]1c1ncc(-c2ccc3c(c2)COc2cc4c(ccc5nc([C@@H]6CC[C@H](C)N6C(=O)[C@@H](NC(=O)OC)C6CCOCC6)[nH]c54)cc2-3)[nH]1)C(C)C [Comp 5, reference compound] | 0.029 | 0.022 | 0.013 | 0.012 | 0.054 | 0.041 | 22 | 0.297 | 0.466 | 0.549 |  |  |  | 
COC(=O)N[C@H](C(=O)N1[C@@H](C)CC[C@H]1c1nc2ccc3cc4c(cc3c2[nH]1)OCc1cc(-c2cnc([C@@H]3CC[C@H](C)N3C(=O)[C@@H](NC(=O)OC)C3CCOCC3)[nH]2)ccc1-4)C(C)C [Comp 7, reference compound] | 0.028 | 0.018 | 0.015 | 0.035 | 0.088 | 0.035 | 10.2 |  |  |  | 0.037 | 0.019 |  | 
COC[C@H]1C[C@@H](c2ncc(-c3ccc4c(c3)COc3cc5c(ccc6nc([C@@H]7CC[C@H](C)N7C(=O)[C@@H](NC(=O)OC)C(C)C)[nH]c65)cc3-4)[nH]2)N(C(=O)[C@@H](NC(=O)OC)C2C[C@@H](C)O[C@H](C)C2)C1 (stereo partly drawn) [Example AB, Methyl {(2S)-1-[(2S,5S)-2-(9-{2-[(2S,4S)-1-{(2S)-2-[(2R,6R)-2,6-dimethyltetrahydro-2H-pyran-4-yl]-2-[(methoxycarbonyl)amino]acetyl}-4-(methoxymethyl)pyrrolidin-2-yl]-1H-imidazol-5-yl}-1,11-dihydroisochromeno[4′,3′:6,7]naphtho[1,2-d]imidazol-2-yl)-5-methylpyrrolidin-1-yl]-3-methyl-1-oxobutan-2-yl}carbamate] | 0.046 | 0.026 | 0.011 | 0.028 |  | 0.025 |  | 0.082 | 0.163 | 8.77 | 0.024 | 0.006 | 0.668 | 0.418
CC[C@H]1CC[C@@H](c2nc3ccc4cc5c(cc4c3[nH]2)OCc2cc(-c3cnc([C@@H]4CC[C@H](C)N4C(=O)[C@@H](NC(=O)OC)C(C)C)[nH]3)ccc2-5)N1C(=O)[C@@H](NC(=O)OC)[C@H]1CCCOC1 [Example AG, Methyl{(1S)-2-[(2S,5S)-2-ethyl-5-(9-{2-[(2S,5S)-1-{(2S)-2[(methoxycarbonyl)amino]-3-methylbutanoyl}-5-methylpyrrolidin-2-yl]-1H-imidazol-5-yl}-1,11-dihydroisochromeno[4′,3′:6,7]naphtho[1,2-d]imidazol-2-yl)pyrrolidin-1-yl]-2-oxo-1-[(3R)-tetrahydro-2H-pyran-3-yl]ethyl}carbamate] | 0.026 | 0.023 | 0.025 | 0.121 | 0.092 | 0.137 | 27.8 |  |  |  |  | 0.014 |  | 
CC[C@H](C)[C@H](NC(=O)OC)C(=O)N1[C@@H](C)CC[C@H]1c1nc2ccc3cc4c(cc3c2[nH]1)OCc1cc(-c2cnc([C@@H]3CC[C@H](C)N3C(=O)[C@@H](NC(=O)OC)C3C[C@@H](C)O[C@H](C)C3)[nH]2)ccc1-4 (stereo partly drawn) [Example BL, methyl{(2S,3S)-1-[(2S,5S)-2-(9-{2-[(2S,5S)-1-{(2S)-2-[(2R,6R)-2,6-dimethyltetrahydro-2H-pyran-4-yl]-2-[(methoxycarbonyl)amino]acetyl}-5-methylpyrrolidin-2-yl]-1H-imidazol-5-yl}-1,11-dihydroisochromeno[4′,3′:6,7]naphtho[1,2-d]imidazol-2-yl)-5-methylpyrrolidin-1-yl]-3-methyl-1-oxopentan-2-yl}carbamate] | 0.024 | 0.018 | 0.009 | 0.022 |  | 0.014 |  |  | 0.228 | 1.05 | 0.021 | 0.006 |  | 0.531
